Activity calls are given as the source filed them. The calls are words filed in the database; no cut-off is given here.

Data set [1] relates to HUVEC. As to the kind of experiment: Antiinflammatory activity in HUVEC assessed as inhibition of TNF-alpha-induced E-selection expression at 10-1000 ug/ml after 2 hrs by ELISA. Type of data set: functional, cell-based. Particulars: Homo sapiens.
In data set [2] the test system is HUVEC. As to the kind of experiment: Cytotoxicity against HUVEC assessed as LDH release at 10-1000 ug/ml after 2 hrs. Type of data set: cell-based. The following applies: human. For orientation: LDH leaks from cells whose membrane has failed.
The test system of data set [3] is HUVEC. As to the kind of experiment: Antiinflammatory activity in HUVEC assessed as inhibition of TNF-alpha-induced E-selection expression after 2 hrs by ELISA. Type of data set: functional, cell-based. The following applies: Homo sapiens. A general note: An ELISA detects its analyte on a solid surface through an enzyme-linked reagent.

On to `COC(=O)C1=CO[C@@H](O[C@@H]2O[C@H](CO)[C@@H](O)[C@H](O)[C@H]2O)[C@@H]2[C@H](C)O[C@@H](OC)C[C@H]12`, for which, in the data set on HUVEC [1], the inhibition result is “inactive”. For the same compound, the Activity result in the data set on HUVEC [2] was “Non-toxic”. As a reminder, the IC50 is the concentration that gives 50% inhibition. In the case of `C[C@]1(OC(=O)/C=C/c2ccccc2)C[C@@H](O)[C@]2(O)C=CO[C@@H](O[C@@H]3O[C@H](CO)[C@@H](O)[C@H](O)[C@H]3O)[C@@H]21` [HARPAGOSIDE], the IC50 in the data set with HUVEC [3] came to 88.2 µM. With `COC(=O)C1=CO[C@@H](O[C@@H]2O[C@H](CO)[C@@H](O)[C@H](O)[C@H]2O)[C@@H]2[C@H](C)O[C@@H](O)C[C@H]12` [MORRONISIDE], the inhibition result in the data set with HUVEC [1] is “inactive”. For the same compound, the Activity entry in the data set on HUVEC [2] is reported as “Non-toxic”.

The record behind these values is ChEMBL document CHEMBL1208764, “Morroniside cinnamic acid conjugate as an anti-inflammatory agent” (Bioorg Med Chem Lett, 2010).
